Reference: patent US4328334A, “11-Aza-10-deoxo-10-dihydroerythromycin A and derivatives thereof as well as a process for their preparation” (PLIVA Pharmaceutical and Chemical Works, priority 1979, dated 1982)
Converted amounts (≈) assume the structure as drawn.

Assays:
[1] = test system: Staphylococcus aureus ATCC 6538-P; test: in vitro minimum inhibitory concentration, Staphylococcus aureus ATCC 6538-P; type: cell-based; conditions: ATCC6538; in vitro, Staphylococcus aureus ATCC 6538-P; read-out: minimum inhibitory concentrations (MIC)
Sarcina lutea ATCC 9341 = test: in vitro minimum inhibitory concentration, Sarcina lutea ATCC 9341; type: cell-based; conditions: Micrococcus luteus, ATCC9341, read-out: minimum inhibitory concentrations (MIC)
[2] = test system: Staphylococcus aureus ATCC 6538-P; test: stability in acid medium: MIC after exposure to 1 N HCl; type: cell-based; conditions: for stability in acid medium compared with erythromycin A / stability in acid medium compared with erythromycin A oxime: pH 1.2, 30 minutes to 6 hours; for MIC: ATCC6538, pH 1.2, Staphylococcus aureus ATCC 6538-P
[3] = test system: Micrococcus flavus ATCC 10240; test: in vitro minimum inhibitory concentration, Micrococcus flavus ATCC 10240; type: cell-based; conditions: ATCC10240; in vitro, Micrococcus flavus ATCC 10240; read-out: minimum inhibitory concentrations (MIC)
[4] = test system: Bacillus subtilis ATCC 6633; test: in vitro minimum inhibitory concentration, Bacillus subtilis ATCC 6633; type: cell-based; conditions: ATCC6633; in vitro, Bacillus subtilis ATCC 6633; read-out: minimum inhibitory concentrations (MIC)
[5] = test system: Staphylococcus epidermidis ATCC 12228; test: in vitro minimum inhibitory concentration, Staphylococcus epidermidis ATCC 12228; type: cell-based; conditions: ATCC12228; in vitro, Staphylococcus epidermidis ATCC 12228; read-out: minimum inhibitory concentrations (MIC)
[6] = test system: Streptococcus faecalis ATCC 8043; test: in vitro minimum inhibitory concentration, Streptococcus faecalis ATCC 8043; type: cell-based; conditions: Enterococcus faecalis, ATCC8043; in vitro, Streptococcus faecalis ATCC 8043; read-out: minimum inhibitory concentrations (MIC)
[7] = test system: Bacillus cereus var. mycoides ATCC 11778; test: microbe, parasite or virus in culture; type: cell-based; conditions: ATCC11778, read-out: minimum inhibitory concentrations (MIC)
[8] = test system: Brucella bronchiseptica ATCC 4617; test: microbe, parasite or virus in culture; type: cell-based; conditions: Bordetella bronchiseptica, ATCC4617, read-out: minimum inhibitory concentrations (MIC)
Salmonella panama = test: in vitro minimum inhibitory concentration, Salmonella panama; type: cell-based; conditions: Salmonella enterica; in vitro, Salmonella panama; read-out: minimum inhibitory concentrations (MIC)
[9] = test system: Escherichia coli ATCC 10536; test: in vitro minimum inhibitory concentration, Escherichia coli ATCC 10536; type: cell-based; conditions: ATCC10536, read-out: minimum inhibitory concentrations (MIC)
[10] = test system: Pseudomonas aeruginosa NCTC 10490; test: in vitro minimum inhibitory concentration, Pseudomonas aeruginosa NCTC 10490; type: cell-based; conditions: NCTC10490; in vitro, Pseudomonas aeruginosa NCTC 10490; read-out: minimum inhibitory concentrations (MIC)
[11] = test system: Corynebacterium xerosis NCTC 9755; test: in vitro minimum inhibitory concentration, Corynebacterium xerosis NCTC 9755; type: cell-based; conditions: NCTC9755; in vitro, Corynebacterium xerosis NCTC 9755; read-out: minimum inhibitory concentrations (MIC)
[12] = test system: Shigella flexneri II-1819/C; test: in vitro minimum inhibitory concentration, Shigella flexneri II-1819/C; type: cell-based; conditions: II1819/C, read-out: minimum inhibitory concentrations (MIC)
Method: In order to examine the antibacterial action, some new compounds were tested in vitro on a series of gram-positive and gram-negative micro-organisms. The results are shown in Table 1 as minimum inhibitory concentrations (MIC) in mcg/ml in comparision with erythromycin A erythromycin A oxime.

[13] = test system: Klebsiella pneumoniae ATCC 10031; test: in vitro minimum inhibitory concentration, Klebsiella pneumoniae ATCC 10031; type: cell-based; conditions: ATCC10031; in vitro, Klebsiella pneumoniae ATCC 10031; read-out: minimum inhibitory concentrations (MIC)
albino mice = test: acute i.v. toxicity in albino mice (Litchfield-Wilcoxon); conditions: mouse, in vivo, iv
[14] = as above; conditions: mouse, in vivo, iv; acute i.v., albino mice
[15] = pKb in dimethyl formamide-water; type: physicochemical; conditions: dmf (66% v/v)-water; dimethyl formamide (66% v/v)-water
[16] = exposure time 1/2 hour, 1 N HCl

| SMILES | MIC [1] [µg/mL] | MIC (Sarcina lutea ATCC 9341) [µg/mL] | stability in acid medium compared with erythromycin A ([2]; 1 N HCl) | stability in acid medium compared with erythromycin A oxime ([2]; 1 N HCl) | MIC ([2]; exposure time 0 hours) [µg/mL] | MIC [2, 16] [µg/mL] | MIC ([2]; exposure time 1 hour, 1 N HCl) [µg/mL] | MIC ([2]; exposure time 2 hours, 1 N HCl) [µg/mL] | MIC ([2]; exposure time 3 hours, 1 N HCl) [µg/mL] | MIC ([2]; exposure time 6 hours, 1 N HCl) [µg/mL] | MIC [3] [µg/mL] | MIC [4] [µg/mL] | MIC [5] [µg/mL] | MIC [6] [µg/mL] | MIC [7] [µg/mL] | MIC [8] [µg/mL] | MIC (Salmonella panama) [µg/mL] | MIC [9] [µg/mL] | MIC [10] [µg/mL] | MIC [11] [µg/mL] | further results |
| --- | --- | --- | --- | --- | --- | --- | --- | --- | --- | --- | --- | --- | --- | --- | --- | --- | --- | --- | --- | --- | --- |
| CC[C@H]1OC(=O)[C@H](C)[C@@H](O[C@H]2C[C@@](C)(OC)[C@@H](O)[C@H](C)O2)[C@H](C)[C@@H](O[C@@H]2O[C@H](C)C[C@H](N(C)C)[C@H]2O)[C@](C)(O)C[C@@H](C)CN[C@H](C)[C@H]2OC(=O)O[C@@]21C [Compound VI, 11-aza-10-deoxo-10-dihydroerythromycin A cyclic 13,14-carbonate] | 1 (≈ 1.31 µM) | 0.1 (≈ 0.131 µM) | significantly more stable than erythromycin A | within the range of that of the starting antibioticum erythromycin A oxime | 1 (≈ 1.31 µM) | 1 (≈ 1.31 µM) | 1 (≈ 1.31 µM) | 2.5 (≈ 3.29 µM) | 2.5 (≈ 3.29 µM) | 2.5 (≈ 3.29 µM) | 0.5 (≈ 0.657 µM) | 0.5 (≈ 0.657 µM) | 2.5 (≈ 3.29 µM) | 0.05 (≈ 0.0657 µM) | 2.5 (≈ 3.29 µM) | – | – | – | – | – | – |
| CC[C@H]1OC(=O)[C@H](C)[C@@H](O[C@H]2C[C@@](C)(OC)[C@@H](O)[C@H](C)O2)[C@H](C)[C@@H](O[C@@H]2O[C@H](C)C[C@H](N(C)C)[C@H]2O)[C@](C)(O)C[C@@H](C)CN(S(=O)(=O)c2ccc(C)cc2)[C@H](C)[C@@H](O)[C@]1(C)O [Compound VIII, N-(4-methyl-benzenesulfonyl)-11-aza-10-deoxo-10-dihydroerythromycin A] | 100 (≈ 112 µM) | 50 (≈ 56.2 µM) | – | – | – | – | – | – | – | – | 20 (≈ 22.5 µM) | 100 (≈ 112 µM) | 100 (≈ 112 µM) | 20 (≈ 22.5 µM) | 50 (≈ 56.2 µM) | – | – | – | – | – | – |
| CC[C@H]1OC(=O)[C@H](C)[C@@H](O[C@H]2C[C@@](C)(OC)[C@@H](O)[C@H](C)O2)[C@H](C)[C@@H](O[C@@H]2O[C@H](C)C[C@H](N(C)C)[C@H]2O)[C@](C)(O)C[C@@H](C)CN[C@H](C)[C@@H](O)[C@]1(C)O [Compound I, 11-aza-4-0-cladinosyl-6-0-desosaminyl-15-ethyl-7,13,14-trihydroxy-3,5,7,9,12,14-hexamethyloxacyclopentadecane-2-one] | 0.5 (≈ 0.68 µM) | 0.05 (≈ 0.068 µM) | significantly more stable than erythromycin A | within the range of that of the starting antibioticum erythromycin A oxime | 0.5 (≈ 0.68 µM) | 0.5 (≈ 0.68 µM) | 0.5 (≈ 0.68 µM) | 1 (≈ 1.36 µM) | 1 (≈ 1.36 µM) | 1 (≈ 1.36 µM) | 0.05 (≈ 0.068 µM) | 5 (≈ 6.8 µM) | 0.5 (≈ 0.68 µM) | 0.5 (≈ 0.68 µM) | 0.5 (≈ 0.68 µM) | 1 (≈ 1.36 µM) | 50 (≈ 68 µM) | 10 (≈ 13.6 µM) | 50 (≈ 68 µM) | 1 (≈ 1.36 µM) | MIC [12]: 10 µg/mL (≈ 13.6 µM); MIC [13]: 10 µg/mL (≈ 13.6 µM); acute i.v. toxicity compared with erythromycin A oxime (albino mice): less toxic that the starting erythromycin A oxime; LD50 [14]: 110 mg/kg |
| CCC(=O)N1C[C@H](C)C[C@@](C)(O)[C@H](O[C@@H]2O[C@H](C)C[C@H](N(C)C)[C@H]2O)[C@@H](C)[C@H](O[C@H]2C[C@@](C)(OC)[C@@H](O)[C@H](C)O2)[C@@H](C)C(=O)O[C@H](CC)[C@@](C)(O)[C@H](O)[C@H]1C [Compound V, N-propionyl-11-aza-10-deoxo-10-dihydroerythroycin A] | – | – | – | – | – | – | – | – | – | – | – | – | – | – | – | – | – | – | – | – | pKa [15]: 8.6 |
| CC[C@H]1OC(=O)[C@H](C)[C@@H](O[C@H]2C[C@@](C)(OC)[C@@H](O)[C@H](C)O2)[C@H](C)[C@@H](O[C@@H]2O[C@H](C)C[C@H](N(C)C)[C@H]2O)[C@](C)(O)C[C@@H](C)C(=NO)[C@H](C)[C@@H](O)[C@]1(C)O [EO, erythromycin A oxime, reference compound] | 0.5 (≈ 0.668 µM) | 0.05 (≈ 0.0668 µM) | – | – | 0.1 (≈ 0.134 µM) | 0.1 (≈ 0.134 µM) | 0.1 (≈ 0.134 µM) | 0.5 (≈ 0.668 µM) | 0.5 (≈ 0.668 µM) | 0.5 (≈ 0.668 µM) | 0.1 (≈ 0.134 µM) | 0.1 (≈ 0.134 µM) | 0.1 (≈ 0.134 µM) | 0.05 (≈ 0.0668 µM) | 0.1 (≈ 0.134 µM) | 1 (≈ 1.34 µM) | 50 (≈ 66.8 µM) | 25 (≈ 33.4 µM) | 50 (≈ 66.8 µM) | 0.1 (≈ 0.134 µM) | MIC [12]: 50 µg/mL (≈ 66.8 µM); MIC [13]: 5 µg/mL (≈ 6.68 µM); LD50 [14]: 74 mg/kg |
